{"source": "paper PMC6934184", "about": "“Selective DNA-PKcs inhibition extends the therapeutic index of localized radiotherapy and chemotherapy” (The Journal of Clinical Investigation, 2019)", "biological_target": "T1, PRKCI (PKC iota) (Homo sapiens, UniProt P41743)", "T1 construct": "purchased Thermo Fisher Scientific (Life Technologies) SelectScreen", "T1 sequence (P41743 whole entry)": "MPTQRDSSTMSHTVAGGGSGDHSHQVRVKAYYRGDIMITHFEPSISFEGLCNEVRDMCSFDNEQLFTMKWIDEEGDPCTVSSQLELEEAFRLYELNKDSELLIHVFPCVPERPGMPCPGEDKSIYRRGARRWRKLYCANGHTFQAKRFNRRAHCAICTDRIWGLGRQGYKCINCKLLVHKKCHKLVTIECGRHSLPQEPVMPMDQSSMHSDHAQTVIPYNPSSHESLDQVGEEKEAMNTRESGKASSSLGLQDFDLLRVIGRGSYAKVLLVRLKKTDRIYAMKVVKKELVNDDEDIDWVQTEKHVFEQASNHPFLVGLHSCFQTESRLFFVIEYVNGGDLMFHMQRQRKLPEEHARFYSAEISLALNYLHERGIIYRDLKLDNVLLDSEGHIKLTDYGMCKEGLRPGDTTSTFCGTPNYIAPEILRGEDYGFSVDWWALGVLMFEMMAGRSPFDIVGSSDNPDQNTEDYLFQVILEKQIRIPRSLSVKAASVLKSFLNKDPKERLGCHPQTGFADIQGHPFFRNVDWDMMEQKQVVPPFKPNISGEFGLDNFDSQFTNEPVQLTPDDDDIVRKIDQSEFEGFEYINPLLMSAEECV", "assay": "SelectScreen Z'LYTE", "type": "biochemical", "summary_of_the_method": "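NU5455 was profiled across the SelectScreen Broad panel of kinase activity and binding assays. Z'LYTE reactions such as CSF1R ran at apparent Km ATP, while the Adapta CAMK1 assay used ATP listed as 10. Values are given as percent.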"}
{"compound": "CN(C(=O)CN1CCOCC1)c1ccc2sc3c(-c4cccc5c(=O)cc(N6CC7CCC(C6)O7)oc45)cccc3c2c1", "note": "[NU5455]", "values": [{"measurement": "inhibition at 1 µM", "result": -0.8, "unit": "%"}]}
